Experimental data as given in PubChem BioAssay (NCI).
“And” between values parts separate entries of the source, which are not always exact repeats. Identical values can stand only once.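 Each compound was tested at five concentrations against cells in 96-well plates for 48 hours. GI50: concentration for 50% inhibition of growth. TGI denotes the concentration required for complete inhibition of growth.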

Tests used:
Assay in all cases: inhibition of tumour cell growth, NCI panel, 48 h
[1] = system: HCT-116 colon
[2] = system: NCI-H226 lung
[3] = system: M14 melanoma
[4] = system: MALME-3M melanoma
[5] = system: UACC-62 melanoma
[6] = system: TK-10 renal
[7] = system: OVCAR-3 ovarian
[8] = system: HL-60(TB) leukemia
[9] = system: CCRF-CEM leukemia
[10] = system: U251 CNS
[11] = system: RPMI-8226 leukemia
[12] = system: HOP-62 NSCLC
[13] = system: MDA-MB-435
[14] = system: MDA-MB-231 breast
[15] = system: PC-3 prostate
[16] = system: MOLT-4 leukemia
[17] = system: EKVX NSCLC
[18] = system: COLO 205 colon
[19] = system: A498 renal
[20] = system: SF-295 CNS
[21] = system: ACHN renal
[22] = system: CAKI-1 renal
[23] = system: HOP-92 NSCLC
[24] = system: SF-268 CNS
[25] = system: OVCAR-8 ovarian
[26] = system: K-562 leukemia
[27] = system: T-47D breast
[28] = system: NCI-H23 lung
[29] = system: SR leukemia
[30] = system: BT-549 breast
[31] = system: A549 NSCLC
[32] = system: HT29 colon
[33] = system: UO-31 renal
[34] = system: SK-MEL-2 melanoma
[35] = system: SK-MEL-28 melanoma
[36] = system: SF-539 CNS
[37] = system: HS 578T breast
[38] = system: LOX IMVI melanoma
[39] = system: HCC-2998 colon
[40] = system: SN12C renal
[41] = system: DU-145 prostate
[42] = system: 786-0 renal
[43] = system: SW-620 colon
[44] = system: SK-MEL-5 melanoma
[45] = system: RXF 393 renal
[46] = system: SK-OV-3 ovarian
[47] = system: NCI-H522 lung
[48] = system: NCI-H460 lung
[49] = system: OVCAR-5 ovarian
[50] = system: IGROV1 ovarian
[51] = system: UACC-257 melanoma
[52] = system: KM12 colon
[53] = system: HCT-15 colon
[54] = system: OVCAR-4 ovarian
[55] = system: NCI/ADR-RES ovarian
[56] = system: SNB-19 CNS
[57] = system: MCF7 breast

**Q.** Which results are given for `COc1ccc2c(c1)nnc1c3cccnc3[nH]c21`?
**A.** GI50 [1]: 209 nM and 146 nM; GI50 [2]: 2620 nM and 7870 nM; TGI [2]: 11100 nM and 65300 nM; GI50 [3]: 1070 nM and 3260 nM; GI50 [4]: 1060 nM and 926 nM; TGI [4]: 4630 nM and 4180 nM; GI50 [5]: 908 nM and 2110 nM; TGI [5]: 6930 nM and 12600 nM; GI50 [6]: 4520 nM; TGI [6]: 22600 nM; GI50 [7]: 964 nM and 1170 nM; TGI [7]: 2430 nM and 4090 nM; GI50 [8]: 158 nM and 243 nM; GI50 [9]: 37.2 nM; TGI [9]: > 100000 nM; GI50 [10]: 929 nM and 987 nM; TGI [10]: 17300 nM and 10700 nM; GI50 [11]: 725 nM and 487 nM; TGI [11]: 2980 nM and 5530 nM; GI50 [12]: 5470 nM and 26000 nM; TGI [12]: 16100 nM and > 100000 nM; GI50 [13]: 1440 nM and 1520 nM; TGI [13]: 9430 nM and 12300 nM; GI50 [14]: 1420 nM and 1560 nM; TGI [14]: 11400 nM and 6100 nM; GI50 [15]: 1420 nM; TGI [15]: > 100000 nM; GI50 [16]: 29.9 nM; TGI [16]: 219 nM; GI50 [17]: 2820 nM and 6620 nM; TGI [17]: 50000 nM and > 100000 nM; GI50 [18]: 1130 nM and 735 nM; TGI [18]: 4870 nM and 2310 nM; GI50 [19]: 8000 nM and 2480 nM; TGI [19]: 19200 nM and 21300 nM; TGI [20]: 11300 nM and > 100000 nM; GI50 [21]: 231 nM; TGI [21]: > 100000 nM; GI50 [22]: 108 nM and 594 nM; GI50 [23]: 81.7 nM and 131 nM; TGI [23]: 1110 nM and 3260 nM; GI50 [24]: 733 nM and 365 nM; TGI [24]: 4700 nM and 5650 nM; GI50 [25]: 619 nM and 376 nM; GI50 [26]: 221 nM and 1060 nM; GI50 [27]: 492 nM and 224 nM; TGI [27]: 2610 nM and 4210 nM; GI50 [28]: 5500 nM and 3040 nM; TGI [28]: 14100 nM and 14900 nM; GI50 [29]: 31.3 nM and 33.6 nM; GI50 [30]: 3430 nM and 3260 nM; TGI [30]: 15000 nM and 20500 nM; GI50 [31]: 7900 nM and 3530 nM; TGI [31]: 42500 nM and 15400 nM; GI50 [32]: 751 nM and 541 nM; GI50 [33]: 122 nM and 172 nM; TGI [33]: 1110 nM and 2170 nM; GI50 [34]: 1960 nM and 3600 nM; GI50 [35]: 11800 nM and 11200 nM; TGI [35]: 50000 nM and > 100000 nM; GI50 [36]: 642 nM and 428 nM; TGI [36]: 1620 nM and 1870 nM; GI50 [37]: 3470 nM and 4890 nM; TGI [37]: 25500 nM and 81200 nM; GI50 [38]: 758 nM and 403 nM; TGI [38]: 4220 nM and 2610 nM; GI50 [39]: 8230 nM and 10000 nM; TGI [39]: 18400 nM and 23800 nM; GI50 [40]: 1630 nM and 1680 nM; TGI [40]: 7770 nM and 10700 nM; GI50 [41]: 1880 nM and 1040 nM; TGI [41]: 12900 nM and 4460 nM; GI50 [42]: 509 nM and 2230 nM; GI50 [43]: 378 nM and 978 nM; GI50 [44]: 5850 nM and 4040 nM; TGI [44]: 12600 nM and 18900 nM; GI50 [45]: 660 nM and 1760 nM; TGI [45]: 2150 nM and 12600 nM; GI50 [46]: 2690 nM and 2380 nM; TGI [46]: 13500 nM and 12500 nM; GI50 [47]: 1090 nM; TGI [47]: 3000 nM; GI50 [48]: 1930 nM and 1280 nM; TGI [48]: 9030 nM and 3790 nM; GI50 [49]: 5720 nM and 35400 nM; TGI [49]: 20200 nM and > 100000 nM; GI50 [50]: 310 nM and 550 nM; GI50 [51]: 7490 nM and 1910 nM; TGI [51]: 41000 nM and 10700 nM; GI50 [52]: 1220 nM and 1920 nM; TGI [52]: 5890 nM and 13400 nM; GI50 [53]: 2260 nM and 2300 nM; TGI [53]: 50000 nM and 12900 nM; GI50 [54]: 1410 nM and 2580 nM; TGI [54]: 16200 nM and > 100000 nM; GI50 [55]: 1790 nM and 1920 nM; TGI [55]: 12500 nM and 18900 nM; GI50 [56]: 7610 nM and 9990 nM; TGI [56]: 18700 nM and 33400 nM; GI50 [57]: 228 nM and 209 nM; TGI [57]: 966 nM and 1410 nM
